Test results reported in US20220062294A1, “PHARMACEUTICAL COMPOSITIONS OF TETRACYCLIC QUINOLONE ANALOGS AND THEIR SALTS” (Senhwa Biosciences, Inc., priority 2020, published 2022).

How the values were obtained:
normal cells = experiment: Alamar Blue cell viability assay, overall statement on normal cells; assay type: cell-based
[1] = tested on: metastatic, recurrent, locally, advanced, or unresectable solid malignancy; experiment: Pharmacokinetic and dose escalation study in patients with solid malignancy (Example 6); assay type: in vivo, human
Procedure: In pharmacokinetic and dose escalation studies, wadult patients with metastatic, recurrent, locally, advanced, or unresectable solid malignancy (patients with histologically and/or cytologically confirmed solid malignancy), who received prior anti-cancer treatment(s) until disease progression, at 10 different dose levels of Compound I were evaluated. Groups 1-7 were administered Compound I intravenously on days 1 and 8 of a 4-week cycle at 50, 100, 150, 200, 250, 325, and 475 mg/m^2 (solid Compound I reconstituted with 5% glucose in sterile water or similar biologically acceptable IV fluid), respectively. Groups 8-10 were administered intravenously on days 1, 8, and 15 of a 4-week cycle at 325, 475, and 650 mg/m^2, respectively. Each patient received each dose over 1 hour by IV infusion on days described above.
18 Patients were diagnosed with metastatic breast cancer.
12 Patients harbored BRCA1 or BRCA2 mutation. From the same group of 12 patients harboring BRCA1 or BRCA2 mutation, 8 patients had breast cancer (FIG. 2). Of the 8 patients, 6 patients harbored BRCA2 mutation and had breast cancer (FIG. 3). In FIGS. 1-3, each bar represents an individual in a treatment Group as indicated by the Group number corresponding to the treatment Groups.

[2] = tested on: BRCA2 knockout tumor cells; experiment: Xenograft model, BRCA2 knockout vs isogenic wild type tumor cells; assay type: in vivo; conditions: BRCA2 knockout tumor cells in a xenograft model, compared with isogenic wild type control cells
[3] = tested on: multiple cancer cell lines; experiment: Alamar Blue cell viability assay, overall statement on cancer cell lines; assay type: cell-based
Procedure: The effect of Compound I on cell viability was assessed by Alamar Blue assay of metabolic activity in various cancer cell lines.

BRCA1/2 deficient cells = experiment: Toxicity against BRCA1/2 deficient cell lines; assay type: cell-based; conditions: cell lines of different genetic backgrounds (colon, breast and ovary), mouse and human

Cc1cnc(CNC(=O)c2c(=O)c3ccc(N4CCCN(C)CC4)nc3n3c2sc2ccccc23)cn1 [Compound I, 2-(4-Methyl-[1,4]diazepan-1-yl)-5-oxo-5H-7-thia-1,11b-diaza-benzo[c]fluorene-6-carboxylic acid (5-methyl-pyrazin-2-ylmethyl)-amide]
activity in normal cells compared with cancer cell lines (normal cells): significantly less active
response to Compound I treatment ([1]; one patient of Group 10 (650 mg/m^2 IV, days 1, 8, 15 of 4-week cycle) with PALB2 mutation and BRCA2 mutation): partial response (PR)
response to Compound I treatment ([1]; patients with BRCA2 mutation, dose greater than or equal to 150 mg/m^2, IV): tumor shrinkage
therapeutic index of activity [2]: wide therapeutic index
antiproliferative activity [3]: antiproliferation activity
toxicity against BRCA1/2 deficient cells (BRCA1/2 deficient cells): specific toxicity
